Non-standard residues stand in square brackets, D forms with d. Nle = CCCC[C@H](N)C(=O)O
Tests used:
hMC5-R = target: T1, hMC5-R (Homo sapiens, UniProt P33032); assay: Competitive binding assay: inhibition of 125I-NDP-α-MSH binding to HEK-293 membranes with cloned human receptor subtype 5
T1 construct: expressed in transfected cells; host or cells: HEK-293
Method in brief: (§1)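 Test metallopeptides, complexed to rhenium, compete with 125I-NDP-α-MSH for receptor sites on mouse B16-F10 or human-receptor HEK-293 membranes. Specific binding is the cpm difference without and with 1 μM α-MSH, and values are percent inhibition.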

hMC2-R = target: T2, hMC2-R (Homo sapiens, UniProt P41968); assay: Competitive binding assay of additional compounds, Table 6 hMC2-R; details: 1 μM, mean of triplicate
T2 construct: expressed in transfected cells; host or cells: HEK-293

MC4-R [1] = target: T3, MC4-R (Homo sapiens, UniProt P32245); assay: Competitive binding assay: inhibition of 125I-NDP-α-MSH binding to HEK-293 membranes with cloned human receptor subtype 4
T3 construct: expressed in transfected cells; host or cells: HEK-293
Method in brief: as §1

Male Sprague-Dawley rats [2] = assay: Penile erection behavior dose response animal studies; type: in vivo, rat; details: for Induction of penile erections (PEs) in rat model, in words: rats, IV
Experimental: For behavioral experiments test solutions of rhenium-complexed metallopeptides were freshly prepared in DMSO and diluted in saline. Male Sprague-Dawley rats (Taconic) weighing 200-250 g were kept on a 12 hour on/off light cycle with food and water ad libitum. All behavioral studies were performed between 10 a.m. and 5 p.m. Groups of 3-10 rats were treated with the rhenium-complexed metallopeptides at a variety of doses via intravenous (IV) injection. In a second experimental paradigm, rats were treated a selected compound intranasally (IN) using a micropipet to deliver 25 μl of solution into one nostril. Immediately after treatment, rats were placed into individual Lucite cages (27 cm long, 16 cm wide and 25 cm high) for behavioral observation.

MC1-R [3] = target: T4, MC1-R (Mus musculus, UniProt Q01727); assay: Competitive binding assay: inhibition of 125I-NDP-α-MSH binding to membranes from B16-F10 mouse melanoma cells
T4 construct: MC1-R membranes were isolated from B16—F10 mouse melanoma cells; endogenous in cells; host or cells: B16-F10 mouse melanoma cells
Method in brief: as §1

MC4-R [4] = target: T3, MC4-R; assay: Functional activity assay: intracellular cAMP in HEK-293 cells expressing MC4-R; type: cell-based; details: Re-complexed peptide
Experimental: (§2) Rhenium-complexed metallopeptides were prepared, with functional evaluation of peptides at MC1-R and MC4-R performed by measuring the accumulation of intracellular cAMP in HEK-293 cells expressing MC4-R or B16-F10 mouse melanoma cells expressing MC1-R. Antagonistic activity was determined by measuring the inhibition of α-MSH-induced cAMP levels following exposure to peptide. Cells, suspended in Earle's Balanced Salt Solution containing 10 mM HEPES, pH 7.5, 5 mM MgCl2, 1 mM glutamine, 0.1% albumin and 0.6 mM 3-isobutyl-1-methyl-xanthine, a phosphodiesterase inhibitor, were plated in 96 well plates at a density of 0.5×10^5 cells per well. Cells were incubated with the test peptides in the presence or absence of α-MSH for 1 hour at 37° C. cAMP levels were measured by EIA (Amersham) in the cell lysates. Data analysis and EC50 values were determined using nonlinear regression analysis with Prism Graph-Pad software.

hMC3-R = target: T5, hMC3-R (Homo sapiens, UniProt P41968); assay: Competitive binding assay: inhibition of 125I-NDP-α-MSH binding to HEK-293 membranes with cloned human receptor subtype 3; details: Table 1
T5 construct: expressed in transfected cells; host or cells: HEK-293
Experimental: Rhenium-complexed metallopeptides of the formulas given in Table 1 were prepared, with the metallopeptides complexed with rhenium using the rhenium transfer agent ReOCl3(PPh3)2 in the presence of 1,8-Diazabicyclo[5,4,0] undec-7-ene as a base, as disclosed in International Application PCT/US00/16396, filed Jun. 14, 2000, Melanocortin Metallopeptide Constructs, Combinatorial Libraries and Applications, incorporated by reference herein. Affinities of compounds were measured using membranes from HEK-293 cells containing cloned human melanocortin receptor subtypes 3, 4 and 5. MC1-R membranes were isolated from B16—F10 mouse melanoma cells. The assay tube also contained a chosen concentration of the test peptide of this invention, complexed to a rhenium metal ion as indicated, for determining its efficacy in inhibiting the binding of ^125I-NDP-α-MSH to its receptor. Non-specific binding was measured by complete inhibition of binding of ^125I-NDP-α-MSH in the assay with the presence of 1 μM α-MSH. 100% specific binding was defined as the difference in radioactivity (cpm) bound to cell membranes in the absence and presence of 1 μM α-MSH. The cpm obtained in presence of test compounds were normalized with respect to 100% specific binding to determine the percent inhibition of ^125I-NDP-α-MSH binding.

MC1-R [5] = target: T4, MC1-R; assay: Functional activity assay: intracellular cAMP in B16-F10 mouse melanoma cells expressing MC1-R; type: cell-based; details: Re-complexed peptide
Experimental: as §2

Male Sprague-Dawley rats [6] = assay: Combination penile erection behavior studies: antagonist IV before IN agonist; type: in vivo, rat; details: effect induced by 50 µg/kg intranasal Ac-Nle-cyclo(-Asp-His-D-Phe-Arg-Trp-Lys)-OH;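 as to Mean Penile Erections/Rat: Erections counted over 30 min observation after IN dosing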;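 as to Percent with Penile Erections: Erections counted over 30 min observation after IN dosing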
Male Sprague-Dawley rats [7] = assay: as above; type: in vivo, rat
Experimental: Conditions were as in Example 3 except as noted. Groups of 5-6 rats received an IV dose of either placebo or antagonist 5 minutes prior to an IN dose of either placebo or agonist. Two antagonists were used: ReO[Heptanoyl-Ser(Bzl)-D-Nal 2′-Arg-Trp-Cys-NH2] and SHU9119 (Hruby V J, Lu D, Sharma S D, et al. J Med Chem 38:3454-3461 (1995)), Ac-Nle-cyclo(-Asp-His-D-Nal 2′-Arg-Trp-Lys)-NH2. The agonist used was Ac-Nle-cyclo(-Asp-His-D-Phe-Arg-Trp-Lys)-OH. Immediately after IN treatment, rats were placed into individual Lucite cages for observation. […] In combination studies, the antagonist was dosed IV 5 minutes prior to a 50 μg/kg IN dose of Ac-Nle-cyclo(-Asp-His-D-Phe-Arg-Trp-Lys)-OH.
These studies were conducted as described above in Example 4 with metallopeptide antagonists administered IV five minutes before IN administration of 50 μg/kg Ac-Nle-cyclo(-Asp-His-D-Phe-Arg-Trp-Lys)-OH. […] The potency of these antagonists also correlated with their relative binding affinities in the in vitro binding assays.

[8] = Table 6, 1 μM, mean of triplicate
[9] = Table 1, 1 μM Re-complexed peptide
[10] = IV 50 μg/kg, 30 min observation
[11] = Table 1, 10 μM Re-complexed peptide
[12] = IV 10 μg/kg, 30 min observation
[13] = IV 150 μg/kg, 30 min observation
[14] = combination: antagonist 200 μg/kg IV 5 min prior to 50 μg/kg IN Ac-Nle-cyclo(-Asp-His-D-Phe-Arg-Trp-Lys)-OH

T5 sequence (P41968 whole entry): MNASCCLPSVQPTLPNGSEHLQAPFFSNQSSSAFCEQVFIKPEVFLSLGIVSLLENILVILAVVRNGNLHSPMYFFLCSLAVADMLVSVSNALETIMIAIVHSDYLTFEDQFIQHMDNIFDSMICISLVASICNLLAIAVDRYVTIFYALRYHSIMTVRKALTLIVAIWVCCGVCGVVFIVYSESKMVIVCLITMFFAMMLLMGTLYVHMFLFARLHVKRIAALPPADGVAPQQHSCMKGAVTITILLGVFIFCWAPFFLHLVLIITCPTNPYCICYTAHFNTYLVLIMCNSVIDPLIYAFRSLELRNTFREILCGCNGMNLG
T3 sequence (P32245 whole entry): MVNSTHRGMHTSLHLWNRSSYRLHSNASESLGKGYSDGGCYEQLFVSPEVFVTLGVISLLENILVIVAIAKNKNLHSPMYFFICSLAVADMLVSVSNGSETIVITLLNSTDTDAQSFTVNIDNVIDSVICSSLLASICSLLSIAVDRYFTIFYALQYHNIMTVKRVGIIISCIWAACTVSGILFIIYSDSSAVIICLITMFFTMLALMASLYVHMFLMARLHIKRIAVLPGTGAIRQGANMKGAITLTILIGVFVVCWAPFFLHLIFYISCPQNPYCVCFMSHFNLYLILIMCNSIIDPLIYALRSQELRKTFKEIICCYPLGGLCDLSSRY
T4 sequence (Q01727 whole entry): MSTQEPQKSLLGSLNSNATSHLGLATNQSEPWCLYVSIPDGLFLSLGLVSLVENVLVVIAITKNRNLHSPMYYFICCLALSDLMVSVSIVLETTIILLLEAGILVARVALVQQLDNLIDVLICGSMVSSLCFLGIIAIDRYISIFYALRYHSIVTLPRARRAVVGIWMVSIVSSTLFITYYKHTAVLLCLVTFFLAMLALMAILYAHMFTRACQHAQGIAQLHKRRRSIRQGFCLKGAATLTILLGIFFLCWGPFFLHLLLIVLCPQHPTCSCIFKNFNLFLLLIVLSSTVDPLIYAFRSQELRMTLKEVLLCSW
T1 sequence (P33032 whole entry): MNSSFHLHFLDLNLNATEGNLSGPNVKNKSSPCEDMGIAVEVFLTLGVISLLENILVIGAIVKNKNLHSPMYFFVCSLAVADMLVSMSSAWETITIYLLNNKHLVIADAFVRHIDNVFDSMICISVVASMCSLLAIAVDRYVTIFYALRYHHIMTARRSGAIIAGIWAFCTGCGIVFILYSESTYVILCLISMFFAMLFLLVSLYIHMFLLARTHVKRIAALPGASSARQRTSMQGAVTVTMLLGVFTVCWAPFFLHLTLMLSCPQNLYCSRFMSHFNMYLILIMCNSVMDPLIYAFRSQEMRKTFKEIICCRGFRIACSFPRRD
T2 sequence (P41968 whole entry): as the sequence (P41968 whole entry) above

% Inhibition of Binding hMC4-R (MC4-R [1]; [9]) | % Inhibition of Binding MC1-R (MC1-R [3]; [9]) | Functional activity at MC4-R (cAMP accumulation; inhibition of α-MSH-induced cAMP) (MC4-R [4]) | % Inhibition of Binding hMC5-R (hMC5-R; [9]) | % Inhibition of Binding hMC3-R (hMC3-R; 1 μM Re-complexed peptide) | Substance | Mean Penile Erections/Rat (Male Sprague-Dawley rats [2]; [10]) | Induction of penile erections (PEs) in rat model, in words (Male Sprague-Dawley rats [2]) | Mean Penile Erections/Rat (Male Sprague-Dawley rats [2]; [13]) | also measured
100% | 101% | MC4-R agonists |  |  | Ac-Nle-Ala-His-D-Phe(3′-Cl)-Arg-Trp-Cys-Trp-NH2 | 0.5 |  |  | 
97% | 19% | MC4-R antagonists | 98% | 64% | Heptanoyl-Ser(Bzl)-D-Nal 2′-Arg-Trp-Cys-NH2 |  | inactive in inducing PEs | 0 | Percent PE Inhibition (Male Sprague-Dawley rats [6]; antagonist 100 μg/kg IV): 14.28%; Percent PE Inhibition (Male Sprague-Dawley rats [6]; antagonist 150 μg/kg IV): 50%; Percent PE Inhibition (Male Sprague-Dawley rats [6]; antagonist 200 μg/kg IV): 100%; Inhibitory effect on agonist-induced PE response, in words (Male Sprague-Dawley rats [7]; IV 0, 100, 150 and 200 μg/kg, FIG. 8): increased with dose; Mean Penile Erections/Rat (Male Sprague-Dawley rats [7]; antagonist alone, 200 μg/kg IV): 0; Percent with Penile Erections (Male Sprague-Dawley rats [7]; antagonist alone, 200 μg/kg IV): 0%; Mean Penile Erections/Rat (Male Sprague-Dawley rats [7]; [14]): 0; Percent with Penile Erections (Male Sprague-Dawley rats [7]; [14]): 0%; Effect on erectile behavior induced by Ac-Nle-cyclo(-Asp-His-D-Phe-Arg-Trp-Lys)-OH, in words (Male Sprague-Dawley rats [7]; rats, antagonist IV before IN agonist): blocked

The next lines start with the substance.

Substance | % Inhibition of Binding hMC4-R (MC4-R [1]; [9]) | % Inhibition of Binding MC1-R (MC1-R [3]; [9]) | Functional activity at MC4-R (cAMP accumulation; inhibition of α-MSH-induced cAMP) (MC4-R [4]) | % Inhibition of Binding hMC5-R (hMC5-R; [9]) | % Inhibition of Binding hMC3-R (hMC3-R; 1 μM Re-complexed peptide) | Mean Penile Erections/Rat (Male Sprague-Dawley rats [2]; [10]) | Induction of penile erections (PEs) in rat model, in words (Male Sprague-Dawley rats [2]) | Mean Penile Erections/Rat (Male Sprague-Dawley rats [2]; [13]) | also measured
3′-Br Phenyl acetyl-Arg-Arg-D-Phe(4′-Cl)-Cys-Trp-NH2 | 100% | 97% | MC4-R agonists |  |  | 0.5 |  |  | % Inhibition of Binding hMC5-R (hMC5-R; [8]): 89%; % Inhibition of Binding hMC2-R (hMC2-R): 48%; % Inhibition of Binding hMC4-R (MC4-R [1]; [8]): 92%; % Inhibition of Binding MC1-R (MC1-R [3]; [8]): 91%
Ac-Nle-Ala-His-D-Phe-Arg-Cys-Trp-NH2 ({Ac-Nle-Ala-H2N}-[dF]RCW-NH2; also: ReO complex) |  |  |  |  |  | 0 | inactive in inducing PEs |  | % Inhibition of Binding hMC5-R (hMC5-R; [11]): 22%; % Inhibition of Binding hMC3-R (hMC3-R; 10 μM Re-complexed peptide): 14%; Functional activity at MC1-R (cAMP accumulation) (MC1-R [5]): MC1-R specific agonist; % Inhibition of Binding hMC4-R (MC4-R [1]; [11]): 29%; Mean Penile Erections/Rat (Male Sprague-Dawley rats [2]; [12]): 0; % Inhibition of Binding MC1-R (MC1-R [3]; [11]): 97%
Ac-Nle-Ala-His-D-Phe-Arg-Trp-Cys-NH2 ({Ac-Nle-Ala-H2N}-[dF]RWC-NH2; also: ReO complex) | 89% | 91% | MC4-R agonists | 93% | 70% | 1.0 |  |  | % with Penile Erections (Male Sprague-Dawley rats [2]; IN 10 μg/kg, 10 rats): 70%; Mean Penile Erections/Rat (Male Sprague-Dawley rats [2]; IN 10 μg/kg, 10 rats): 0.9 ± 0.2; Mean Penile Erections/Rat (Male Sprague-Dawley rats [2]; [12]): 0.25; Mean Penile Erections/Rat (Male Sprague-Dawley rats [2]; IV 30 μg/kg, 30 min observation): 0.75
D-(N-Bzl)Nal 2′-Arg-Trp-Cys-NH2 | 99% | 34% | MC4-R antagonists | 95% | 51% |  | inactive in inducing PEs | 0 | Percent PE Inhibition (Male Sprague-Dawley rats [6]; antagonist 100 μg/kg IV): 14.28%; Percent PE Inhibition (Male Sprague-Dawley rats [6]; antagonist 150 μg/kg IV): 100%
Heptanoyl-Ser(Bzl)-D-Nal 2′-Arg-D-Trp-Cys-NH2 | 66% | 1% | MC4-R antagonists | 60% | 6% |  | inactive in inducing PEs | 0 | Percent PE Inhibition (Male Sprague-Dawley rats [6]; antagonist 200 μg/kg IV): 50%; Percent PE Inhibition (Male Sprague-Dawley rats [6]; antagonist 500 μg/kg IV): 40%
NH2(CH2)6CO-Ser(Bzl)-D-Nal 2′-Arg-D-Trp-Cys-NH2 |  |  | MC4-R antagonists |  |  |  |  |  | % Inhibition of Binding hMC5-R (hMC5-R; [8]): 83%; % Inhibition of Binding hMC2-R (hMC2-R): 58%; % Inhibition of Binding hMC4-R (MC4-R [1]; [8]): 92%; % Inhibition of Binding MC1-R (MC1-R [3]; [8]): 6%

— patent publication US7307063B2, “Melanocortin metallopeptides for treatment of sexual dysfunction” (Palatin Technologies, Inc., priority 2001, dated 2007)
